The target of series [1] is T1, wild-type nAChR α7 receptors (Homo sapiens, UniProt P36544).
T1 construct: expressed in transfected cells; host or cells: Xenopus laevis oocytes
Description: Positive modulation of nAChR α7 currents in Xenopus laevis oocytes (two-electrode voltage clamp). Type of series: cell-based. As to conditions: nAChR α7 expressed in Xenopus laevis oocytes, clamped at −60 mV, 100 μM acetylcholine; for Emax: (test-control)/control×100%, read-out: calculated EC50 Imax (maximal modulation of the control response); for EC50: test compound 0.01-31.6 μM, read-out: calculated EC50 (positive modulation of acetylcholine-induced current). On the procedure: In this example the positive modulation of wild-type nAChR α7 receptors by Compounds 3, 7 and 8, representative of the invention, was determined using nAChR a7 receptors heterologously expressed in Xenopus laevis oocytes.
The electrical current through the nAChR α7 channel was measured using conventional two-electrode voltage clamp and nAChR α7 currents were activated by applying pulses of agonist-containing solution onto the nAChR α7 expressing oocyte.
In brief, the oocytes were placed in a recording chambers and continuously super-fused with an Oocyte Ringer (OR) solution containing 90 mM NaCl, 2.5 mM KCl, 2.5 mM CaCl2, 1 mM MgCl2 and 5 mM HEPES (pH adjusted to 7.4). The oocytes were clamped at −60 mV and currents were induced by applying 20 s pulses of 100 μM acetylcholine dissolved in OR. The intervals between the acetylcholine applications were 5 minutes, during which the oocytes were washed with OR. The first three applications were control applications to insure a constant response level of 100 μM acetylcholine. For the subsequent test applications, increasing concentrations (0.01-31.6 μM) of the test compound were applied 30 s before and during the acetylcholine (100 μM) application, which caused a robust increase in the acetylcholine-induced current amplitude.
The positive modulation in the presence of Compound 4 was calculated as (test-control)/control×100% and the concentration response curve for this positive modulation was fitted to the sigmoidal logistic equation: I=Imax/(1+(EC50/[compound])^n), where Imax represents the maximal modulation of the control response, EC50 is the concentration causing a half maximal response, and n is the slope coefficient.

T1 sequence (P36544 23-502): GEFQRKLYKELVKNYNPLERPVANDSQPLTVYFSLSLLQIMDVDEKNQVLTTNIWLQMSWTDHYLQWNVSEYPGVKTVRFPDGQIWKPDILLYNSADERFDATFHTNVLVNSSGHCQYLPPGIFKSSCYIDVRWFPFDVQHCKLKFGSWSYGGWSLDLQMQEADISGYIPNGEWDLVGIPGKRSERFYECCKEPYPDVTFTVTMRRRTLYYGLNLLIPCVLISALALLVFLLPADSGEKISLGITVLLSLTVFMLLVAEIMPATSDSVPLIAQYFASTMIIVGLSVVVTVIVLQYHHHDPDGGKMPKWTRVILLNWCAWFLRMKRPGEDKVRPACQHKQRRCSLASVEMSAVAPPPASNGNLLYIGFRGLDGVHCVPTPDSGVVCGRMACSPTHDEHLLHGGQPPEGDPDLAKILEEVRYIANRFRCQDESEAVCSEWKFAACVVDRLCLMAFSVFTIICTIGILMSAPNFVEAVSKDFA

Consider `COc1ccc(-c2nnn(-c3ccc(C(F)(F)F)cc3Cl)c2CO)cc1` [Compound 7, [3-(2-Chloro-4-trifluoromethyl-phenyl)-5-(4-methoxy-phenyl)-3H-[1,2,3]triazol-4-yl]-methanol], for which, in series [1], the Emax was 128% and the EC50 is 17 µM.
Molecule `COc1ccc(-c2nnn(-c3ccc(C(F)(F)F)cc3F)c2C)cc1` [Compound 1, 1-(2-Fluoro-4-trifluoromethyl-phenyl)-4-(4-methoxy-phenyl)-5-methyl-1H-[1,2,3]triazole] displayed a melting point of 96.5 to 98.9 °C.
Take `Cc1c(-c2ccc(O)cc2)nnn1-c1ccc(C(F)(F)F)cc1Cl` [Compound 3, 4-[1-(2-Chloro-4-trifluoromethyl-phenyl)-5-methyl-1H-[1,2,3]triazol-4-yl]-phenol]: in series [1], the Emax was 119% and the EC50 is 14 µM.
Consider `OCc1c(-c2ccc(O)cc2)nnn1-c1ccc(C(F)(F)F)cc1Cl` [Compound 8, 4-[1-(2-Chloro-4-trifluoromethyl-phenyl)-5-hydroxymethyl-1H-[1,2,3]triazol-4-yl]-phenol], for which, in series [1], the Emax was 136% and the EC50 was 11 µM.

(Values after patent US20110201656A1, “NOVEL DIPHENYL 1,2,3-TRIAZOLE DERIVATIVES USEFUL AS MODULATORS OF NICOTINIC ACETYLCHOLINE RECEPTORS” (NEUROSEARCH A/S, priority 2008, published 2011).)
